The values below come from US9187472B2 (AbbVie Inc., priority 2012, dated 2015).

In test [1] the target is NAMPT (human, recombinant, C-terminally His-tagged) (Homo sapiens, UniProt P43490). In words: Time-Resolved Fluorescence Resonance Energy Transfer (TR-FRET) Binding Assay of NAMPT. The conditions noted are these: without substrates; 6.8 nM NAMPT, 200 nM probe, 3 hours equilibration. The method in brief: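 In a displacement format, the nicotinamide-site tracer at 200 nM competed with test compound for 6.8 nM enzyme detected via 1 nM terbium anti-His antibody; incubation lasted 3 hours at room temperature in 50 mM HEPES pH 7.5, 100 mM NaCl. Normalized 520/495 nm emission ratios gave IC50 values.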
(In TR-FRET formats the signal depends on donor and acceptor labels being close together.)

Another test concerns the target NAMPT (Homo sapiens, UniProt P43490). In words: TR-FRET Binding Assay of NAMPT with PRPP. Particulars: with 200 μM PRPP and 2.5 mM ATP; 2 nM NAMPT, 2 nM probe, 16 hours equilibration. The method in brief:
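Substrate-containing variant: 200 μM PRPP plus 2.5 mM ATP are added to 2 nM NAMPT and 2 nM probe, with a 16-hour incubation ahead of TR-FRET reading.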

The test system of the next test is PC3 cells. Kind of test: NAMPT Cell Proliferation Assay. Type of test: cell-based. Particulars: Homo sapiens, PC-3, 120 h, 5 days incubation, cell viability by Cell Titer Glo. The method, boiled down: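 Proliferation of PC3 cells treated 5 days with a 10-fold compound series (top 10 μM) was quantified by Cell Titer Glo luminescence; IC50s were fitted from percent inhibition.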
(In general: ATP-based viability assays read luminescence as a measure of living cells.)

NAMPT (human, recombinant, C-terminally His-tagged), sequence (P43490 whole entry): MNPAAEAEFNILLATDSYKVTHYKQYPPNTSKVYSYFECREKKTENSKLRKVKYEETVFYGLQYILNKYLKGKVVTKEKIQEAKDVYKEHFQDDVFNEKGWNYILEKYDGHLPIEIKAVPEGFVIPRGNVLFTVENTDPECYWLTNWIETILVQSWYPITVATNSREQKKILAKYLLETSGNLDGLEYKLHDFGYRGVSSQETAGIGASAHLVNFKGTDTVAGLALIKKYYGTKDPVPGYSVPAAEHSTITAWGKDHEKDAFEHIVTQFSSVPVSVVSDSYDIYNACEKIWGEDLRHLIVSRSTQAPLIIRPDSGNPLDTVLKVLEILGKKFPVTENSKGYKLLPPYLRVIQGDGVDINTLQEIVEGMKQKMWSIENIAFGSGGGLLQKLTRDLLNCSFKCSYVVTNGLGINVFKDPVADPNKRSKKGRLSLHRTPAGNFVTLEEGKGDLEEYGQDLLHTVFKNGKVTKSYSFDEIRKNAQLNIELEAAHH
NAMPT, sequence (P43490 whole entry): as above

Broadly, the IC50 is the midpoint of a concentration-inhibition curve. For the compound `COc1ccccc1C(=O)N1CCC(c2ccc(C(=O)NCc3ccn4ccnc4c3)cc2)CC1` [Example 539, N-(imidazo[1,2-a]pyridin-7-ylmethyl)-4-[1-(2-methoxybenzoyl)piperidin-4-yl]benzamide], the IC50 in test [1] was 0.0985 µM; on NAMPT it was 0.00031 µM; in the test with PC3 cells it was 0.00347 µM.
In the case of `O=C(NCc1ccn2ccnc2c1)c1ccc(C2CCN(C(=O)CC(F)(F)F)C2)s1` (stereo not drawn) [Example 540, N-(imidazo[1,2-a]pyridin-7-ylmethyl)-5-[1-(3,3,3-trifluoropropanoyl)pyrrolidin-3-yl]thiophene-2-carboxamide], the IC50 in test [1] was 0.266 µM; at NAMPT, 0.000305 µM; with PC3 cells it was 0.074 µM.
Turning to `CC(C)C(=O)N1CCC(c2ccc(C(=O)NCc3ccn4ccnc4c3)s2)C1` (stereo not drawn) [Example 541, N-(imidazo[1,2-a]pyridin-7-ylmethyl)-5-[1-(2-methylpropanoyl)pyrrolidin-3-yl]thiophene-2-carboxamide], the IC50 was determined as 0.175 µM in test [1], 0.000448 µM at NAMPT and 0.0645 µM in the test on PC3 cells.
The corresponding values for `O=C(NCc1ccn2ccnc2c1)c1ccc(C2CCN(C(=O)c3ccccc3)C2)s1` (stereo not drawn) [Example 542, 5-(1-benzoylpyrrolidin-3-yl)-N-(imidazo[1,2-a]pyridin-7-ylmethyl)thiophene-2-carboxamide] are 0.0351 µM, 0.000337 µM and 0.00289 µM.
As to `CC(C)C(=O)N1CCC(c2ncc(C(=O)NCc3ccn4ccnc4c3)s2)CC1` [Example 543, N-(imidazo[1,2-a]pyridin-7-ylmethyl)-2-[1-(2-methylpropanoyl)piperidin-4-yl]-1,3-thiazole-5-carboxamide], the IC50 amounted to 1.48 µM in test [1], 0.000383 µM on NAMPT and 0.386 µM in the test with PC3 cells.
For `CC(C)CC(=O)N1CCC(c2ncc(C(=O)NCc3ccn4ccnc4c3)s2)CC1` [Example 544, N-(imidazo[1,2-a]pyridin-7-ylmethyl)-2-[1-(3-methylbutanoyl)piperidin-4-yl]-1,3-thiazole-5-carboxamide], in that order: 0.871 µM, 0.000437 µM and 0.647 µM.
On to `O=C(NCc1ccn2ccnc2c1)c1cnc(C2CCN(C(=O)c3ccccc3)CC2)s1` [Example 545, 2-(1-benzoylpiperidin-4-yl)-N-(imidazo[1,2-a]pyridin-7-ylmethyl)-1,3-thiazole-5-carboxamide], for which the IC50 was 0.109 µM in test [1], 0.000403 µM at NAMPT and 0.0287 µM in the test on PC3 cells.
For `O=C(CC1CCCC1)Nc1ccc(C(=O)NCc2ccn3ncnc3c2)cc1` [Example 546, 4-[(cyclopentylacetyl)amino]-N-([1,2,4]triazolo[1,5-a]pyridin-7-ylmethyl)benzamide], the IC50 in test [1] stood at 0.237 µM; on NAMPT, 0.0232 µM; in the test on PC3 cells it was 2.45 µM.
Regarding `CC[C@H](C)C(=O)N1CC(c2ccc(C(=O)NCc3ccn4ccnc4c3)cc2)C1` [Example 547, N-(imidazo[1,2-a]pyridin-7-ylmethyl)-4-{1-[(2S)-2-methylbutanoyl]azetidin-3-yl}benzamide], the IC50 in test [1] was found to be 0.498 µM; at NAMPT it was 0.000423 µM; with PC3 cells it was 0.0256 µM.
Regarding `O=C(NCc1ccn2ccnc2c1)c1ccc(C2CN(C(=O)CC3CC3)C2)cc1` [Example 548, 4-[1-(cyclopropylacetyl)azetidin-3-yl]-N-(imidazo[1,2-a]pyridin-7-ylmethyl)benzamide], the IC50 is 0.397 µM in test [1], 0.000471 µM at NAMPT and 0.0745 µM in the test on PC3 cells.
With `O=C(NCc1ccn2ccnc2c1)c1ccc(C2CN(C(=O)c3ccccc3)C2)cc1` [Example 549, 4-(1-benzoylazetidin-3-yl)-N-(imidazo[1,2-a]pyridin-7-ylmethyl)benzamide], the figures for the IC50 (in test [1]; at NAMPT; in the test on PC3 cells) were 0.0812 µM, 0.000224 µM and 0.00942 µM, respectively.
